PubChem BioAssay AID248 (DTP/NCI, 2004)
“And” between values parts separate entries of the source, which are not always exact repeats. Equal entries are not always repeated. Toxic doses and inconclusive results are not listed. Cut-off read from the data, not from the text of the source: active = T/C of 150% or more; inactive = T/C below 125%.

Tested on: L1210 leukemia ip in BDF1 mice, survival T/C
Assay: NCI In Vivo Anticancer Drug Screen. Data for tumor model L1210 Leukemia (intraperitoneal) in B6D2F1 (BDF1) mice
Conditions: endpoint: mean survival time, higher = longer survival
Summary of the method: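 Read-out is survival time, reported as the treated-group measurement over the vehicle-control measurement.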

[1] = dose: 100.0 mg/kg/injection, schedule: Q04DX003 (ip), vehicle: Klucel (hydroxypropylcellulose) (HPC)
[2] = dose: 100.0 mg/kg/injection, schedule: Q01DX009 (ip), vehicle: Klucel (hydroxypropylcellulose) (HPC)
[3] = dose: 100.0 mg/kg/injection, schedule: Q04DX002 (ip), vehicle: saline with Tween-80
[4] = dose: 200.0 mg/kg/injection, schedule: Q04DX002 (ip), vehicle: saline with Tween-80
[5] = dose: 100.0 mg/kg/injection, schedule: Q04DX003 (ip), vehicle: saline
[6] = dose: 200.0 mg/kg/injection, schedule: Q04DX003 (ip), vehicle: saline
[7] = dose: 200.0 mg/kg/injection, schedule: Q04DX003 (ip), vehicle: Klucel (hydroxypropylcellulose) (HPC)
[8] = dose: 400.0 mg/kg/injection, schedule: Q04DX003 (ip), vehicle: Klucel (hydroxypropylcellulose) (HPC)
[9] = dose: 100.0 mg/kg/injection, schedule: Q01DX001 (ip), vehicle: carboxymethylcellulose (CMC)
[10] = dose: 200.0 mg/kg/injection, schedule: Q01DX001 (ip), vehicle: carboxymethylcellulose (CMC)
[11] = dose: 400.0 mg/kg/injection, schedule: Q01DX001 (ip), vehicle: carboxymethylcellulose (CMC)
[12] = dose: 75.0 mg/kg/injection, schedule: Q01DX001 (ip), vehicle: saline

Measured: T/C

O=C(O)c1ccccc1NC(=O)C(F)(F)F
inactive: dose: 25.0 mg/kg/injection, schedule: Q01DX009 (ip), vehicle: saline sonified 98 % of control | dose: 50.0 mg/kg/injection, schedule: Q01DX009 (ip), vehicle: saline sonified 96 % of control | dose: 100.0 mg/kg/injection, schedule: Q01DX009 (ip), vehicle: saline sonified 93 % of control | [1] 101 % of control

CSc1ccccc1NC(=O)c1ccccc1
inactive: dose: 100.0 mg/kg/injection, schedule: Q04DX002 (ip), vehicle: Klucel (hydroxypropylcellulose) (HPC) 93 % of control | dose: 200.0 mg/kg/injection, schedule: Q04DX002 (ip), vehicle: Klucel (hydroxypropylcellulose) (HPC) 86 % of control | dose: 400.0 mg/kg/injection, schedule: Q04DX002 (ip), vehicle: Klucel (hydroxypropylcellulose) (HPC) 96 % of control

NCCCSc1ccc(Br)cc1
inactive: dose: 75.0 mg/kg/injection, schedule: Q01DX001 (ip), vehicle: other 102 % of control | dose: 150.0 mg/kg/injection, schedule: Q01DX001 (ip), vehicle: other 96 % of control | dose: 300.0 mg/kg/injection, schedule: Q01DX001 (ip), vehicle: other 92 % of control

CCN(CC)C(=O)Nc1ccccc1F
inactive: [2] 104 % of control | dose: 200.0 mg/kg/injection, schedule: Q01DX009 (ip), vehicle: Klucel (hydroxypropylcellulose) (HPC) 98 % of control | dose: 400.0 mg/kg/injection, schedule: Q01DX009 (ip), vehicle: Klucel (hydroxypropylcellulose) (HPC) 119 % of control

OC(c1ccc(Br)cc1)C(O)c1ccc(Br)cc1 (configuration not stated)
inactive: dose: 50.0 mg/kg/injection, schedule: Q04DX002 (ip), vehicle: saline with Tween-80 104 % of control | [3] 104 % of control | [4] 97 % of control

Nc1ncnc2nc(-c3cc(Cl)c(OCc4ccccc4)c(Cl)c3)[nH]c12
inactive: dose: 100.0 mg/kg/injection, schedule: Q01DX001 (ip), vehicle: Klucel (hydroxypropylcellulose) (HPC) 100 % of control | dose: 200.0 mg/kg/injection, schedule: Q01DX001 (ip), vehicle: Klucel (hydroxypropylcellulose) (HPC) 89 % of control | dose: 400.0 mg/kg/injection, schedule: Q01DX001 (ip), vehicle: Klucel (hydroxypropylcellulose) (HPC) 92 % of control

CN(C)c1ccc(C(N)=O)cn1
inactive: dose: 16.5 mg/kg/injection, schedule: Q01DX009 (ip), vehicle: saline with Tween-80 102 % of control | dose: 29.0 mg/kg/injection, schedule: Q04DX003 (ip), vehicle: saline 112 % of control | dose: 45.0 mg/kg/injection, schedule: Q04DX003 (ip), vehicle: saline 120 % of control | dose: 66.0 mg/kg/injection, schedule: Q04DX003 (ip), vehicle: saline 113 % of control | [5] 114 % of control | [6] 102 % of control

C/C(=N/Nc1ccccc1)c1ccccn1
inactive: [1] 98 % of control | [7] 96 % of control | [8] 98 % of control

CC[C@H](CC[C@@H](C)[C@H]1CC[C@H]2[C@@H]3CC=C4C[C@@H](OC(=O)CN5CCNCC5)CC[C@]4(C)[C@H]3CC[C@]12C)C(C)C
inactive: dose: 100.0 mg/kg/injection, schedule: Q01DX001 (ip), vehicle: water 98 % of control | dose: 100.0 mg/kg/injection, schedule: Q01DX009 (ip), vehicle: water 105 % of control | dose: 100.0 mg/kg/injection, schedule: Q04DX003 (ip), vehicle: water 100 % of control | dose: 200.0 mg/kg/injection, schedule: Q01DX001 (ip), vehicle: water 98 % of control | dose: 200.0 mg/kg/injection, schedule: Q01DX009 (ip), vehicle: water 89 % of control | dose: 200.0 mg/kg/injection, schedule: Q04DX003 (ip), vehicle: water 100 % of control | dose: 400.0 mg/kg/injection, schedule: Q01DX001 (ip), vehicle: water 91 % of control | dose: 400.0 mg/kg/injection, schedule: Q04DX003 (ip), vehicle: water 98 % of control

Cc1c2oc3c(C)ccc(C(=O)OCCN4CCCCC4)c3nc-2c(C(=O)OCCN2CCCCC2)c(N)c1=O
inactive: [3] 113 % of control | [4] 98 % of control

CC1C=CCC(C)(C)C1 (configuration not stated)
inactive: [9] 95 % of control | [10] 100 % of control | dose: 200.0 mg/kg/injection, schedule: Q01DX009 (ip), vehicle: carboxymethylcellulose (CMC) 94 % of control | [11] 114 % of control | dose: 400.0 mg/kg/injection, schedule: Q01DX009 (ip), vehicle: carboxymethylcellulose (CMC) 90 % of control | dose: 600.0 mg/kg/injection, schedule: Q01DX009 (ip), vehicle: carboxymethylcellulose (CMC) 92 % of control

C[n+]1ccc(/C=C/Nc2cccc(N)n2)cc1
inactive: [12] 96 % of control | dose: 150.0 mg/kg/injection, schedule: Q01DX001 (ip), vehicle: saline 102 % of control

CCCCCCCCCC(O)CCCCC (configuration not stated)
inactive: dose: 100.0 mg/kg/injection, schedule: Q01DX009 (ip), vehicle: saline with Tween-80 103 % of control | [1] 98 % of control | dose: 200.0 mg/kg/injection, schedule: Q01DX009 (ip), vehicle: saline with Tween-80 107 % of control | [7] 97 % of control | [8] 101 % of control

N#CC(C(N)=O)n1cnc(C(N)=O)c1N (configuration not stated)
inactive: [9] 97 % of control | [10] 94 % of control | [11] 96 % of control

CC[N+](C)(C)C(C)(C)C
inactive: dose: 18.75 mg/kg/injection, schedule: Q01DX001 (ip), vehicle: saline 112 % of control | dose: 37.5 mg/kg/injection, schedule: Q01DX001 (ip), vehicle: saline 105 % of control | [12] 105 % of control

ClC1=C(Cl)C(Cl)(Cl)C(Cl)(Cl)C1(Cl)Cl
inactive: dose: 12.5 mg/kg/injection, schedule: Q01DX009 (ip), vehicle: saline 99 % of control | dose: 25.0 mg/kg/injection, schedule: Q01DX009 (ip), vehicle: Klucel (hydroxypropylcellulose) (HPC) 92 % of control | dose: 25.0 mg/kg/injection, schedule: Q01DX009 (ip), vehicle: saline 95 % of control | dose: 50.0 mg/kg/injection, schedule: Q01DX009 (ip), vehicle: Klucel (hydroxypropylcellulose) (HPC) 96 % of control | dose: 50.0 mg/kg/injection, schedule: Q01DX009 (ip), vehicle: saline 97 % of control | [2] 87 % of control | [1] 104 % of control | [7] 96 % of control | [8] 102 % of control

CCCn1c(C)nc2c1C(=O)c1ccccc1C2=O
inactive: dose: 100.0 mg/kg/injection, schedule: Q01DX001 (ip), vehicle: saline 94 % of control | [5] 86 % of control | dose: 200.0 mg/kg/injection, schedule: Q01DX001 (ip), vehicle: saline 98 % of control | [6] 88 % of control | dose: 400.0 mg/kg/injection, schedule: Q01DX001 (ip), vehicle: saline 103 % of control | dose: 400.0 mg/kg/injection, schedule: Q04DX003 (ip), vehicle: saline 91 % of control

C1CCC(C2CCCC2)C1
inactive: [3] 100 % of control | [4] 89 % of control | dose: 400.0 mg/kg/injection, schedule: Q04DX002 (ip), vehicle: saline with Tween-80 110 % of control

CC(=O)Nc1ccc2ccccc2c1-c1c(N)ccc2ccccc12
inactive: dose: 100.0 mg/kg/injection, schedule: Q01DX009 (ip), vehicle: gum acacia 91 % of control | dose: 100.0 mg/kg/injection, schedule: Q04DX003 (ip), vehicle: gum acacia 97 % of control | dose: 200.0 mg/kg/injection, schedule: Q01DX009 (ip), vehicle: gum acacia 96 % of control | dose: 200.0 mg/kg/injection, schedule: Q04DX003 (ip), vehicle: gum acacia 92 % of control | dose: 400.0 mg/kg/injection, schedule: Q01DX009 (ip), vehicle: gum acacia 99 % of control | dose: 400.0 mg/kg/injection, schedule: Q04DX003 (ip), vehicle: gum acacia 101 % of control

O=C(NCCCCCCNC(=O)N(Cc1ccccc1)Cc1ccccc1)N(Cc1ccccc1)Cc1ccccc1
inactive: dose: 100.0 mg/kg/injection, schedule: Q04DX002 (ip), vehicle: saline 105 % of control | dose: 200.0 mg/kg/injection, schedule: Q04DX002 (ip), vehicle: saline 97 % of control | dose: 400.0 mg/kg/injection, schedule: Q04DX002 (ip), vehicle: saline 108 % of control

O=C(COc1ccc(Cl)c(Cl)c1)NCc1ccc[n+](Cc2cccc(Cl)c2S(=O)(=O)F)c1
inactive: dose: 25.0 mg/kg/injection, schedule: Q04DX003 (ip), vehicle: saline 103 % of control | dose: 50.0 mg/kg/injection, schedule: Q04DX003 (ip), vehicle: saline 101 % of control | [5] 93 % of control and 100 % of control
